Assay results reported in PubChem BioAssay (NCI).
Values joined by “and” are separate entries in the source; they are usually repeats but may differ in a detail not shown here. Equal entries are not always repeated.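 Step 1: Grow cells in 96-well plates. Step 2: Expose to compound for 48 hours at 5 concentrations. Step 3: Interpolate endpoints linearly; if unreached, use highest concentration. GI50 is the concentration that inhibits growth by half. TGI: concentration producing complete growth inhibition.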

Legend:
Test in all cases: inhibition of tumour cell growth, NCI panel, 48 h
DU-145 prostate = test system: DU-145 prostate
HCC-2998 colon = test system: HCC-2998 colon
HL-60(TB) leukemia = test system: HL-60(TB) leukemia
HOP-62 NSCLC = test system: HOP-62 NSCLC
HS 578T breast = test system: HS 578T breast
KM12 colon = test system: KM12 colon
M14 melanoma = test system: M14 melanoma
MDA-MB-231 breast = test system: MDA-MB-231 breast
OVCAR-5 ovarian = test system: OVCAR-5 ovarian
UACC-257 melanoma = test system: UACC-257 melanoma

Row | Structure (SMILES) | TGI (DU-145 prostate) | TGI (HCC-2998 colon) | TGI (HL-60(TB) leukemia) [µM] | TGI (HOP-62 NSCLC) | TGI (HS 578T breast) [µM] | TGI (KM12 colon) | TGI (M14 melanoma) [µM] | TGI (MDA-MB-231 breast) | TGI (OVCAR-5 ovarian) | TGI (UACC-257 melanoma) | GI50 (DU-145 prostate) [µM] | GI50 (HCC-2998 colon) [µM] | GI50 (HL-60(TB) leukemia) [µM] | GI50 (HOP-62 NSCLC) [µM] | GI50 (HS 578T breast) [µM] | GI50 (KM12 colon) [µM] | GI50 (M14 melanoma) [µM] | GI50 (MDA-MB-231 breast) [µM] | GI50 (OVCAR-5 ovarian) [µM] | GI50 (UACC-257 melanoma) [µM]
1 | COC(=O)C1=Nc2c(C)nn(-c3ccccc3)c2N=C(c2ccccc2)C1 | > 10 µM | > 10 µM | > 10 | > 10 µM | > 10 | > 10 µM | > 10 | > 10 µM | > 10 µM | > 10 µM | – | – | – | – | – | – | – | – | – | –
2 | COc1ccc(CN2C3CC2CN(c2ccc(-c4cc(OCC(C)(C)O)cn5ncc(C#N)c45)cn2)C3)cn1 | > 100 µM | > 100 µM | > 100 | 47.6 µM | 7.12 | > 100 µM | > 100 | > 100 µM | > 100 µM | > 100 µM | 26.2 | 93.7 | > 100 | 4.72 | 2.01 | > 100 | 24.2 | 8.04 | > 100 | > 100
3 | Oc1[nH]c2ccccc2c1N=NC(=S)Nc1ccc(Cl)cc1 | > 100 µM | > 100 µM | > 100 | > 100 µM | > 100 | > 100 µM | 45.2 | 99.6 µM | > 100 µM | > 100 µM | – | – | – | – | – | – | – | – | – | –
4 | C#CCN(Cc1ccc2nc(OC)c(OC)nc2c1)c1cc(OC)c(OC)c(OC)c1 | > 74.5 µM | > 100 µM | 43.5 | > 67.9 µM | 79.1 | 54.9 µM | 71.2 | 43.5 µM | > 85.8 µM | > 100 µM | – | – | – | – | – | – | – | – | – | –
5 | Cc1cnc2c(c1)C(=O)C1=C(C2=O)C2OC(=O)CC2OC1(C)C (stereo not drawn) | 3.02 µM | 0.822 µM | 0.0142 | 2.58 µM | 0.693 | 1.73 µM | 0.824 | 0.35 µM | 0.951 µM | 0.469 µM | – | – | – | – | – | – | – | – | – | –
6 | N#Cc1nc(C2CCC2)oc1N | > 100 µM | > 100 µM | > 100 | > 100 µM | > 100 | > 100 µM | > 100 | > 100 µM | > 100 µM | > 100 µM | – | – | – | – | – | – | – | – | – | –
7 | CC(C)OC(=O)OCSc1ccccc1N=Cc1cccc([N+](=O)[O-])c1 | > 10 µM | > 10 µM | > 10 | > 10 µM | > 10 | > 10 µM | > 10 | > 10 µM | > 10 µM | > 10 µM | – | – | – | – | – | – | – | – | – | –
8 | CCOC(=O)C1CCC(=O)N1C(=O)c1ccccc1 (stereo not drawn) | > 100 µM | > 100 µM | > 100 | > 100 µM | > 100 | > 100 µM | > 100 | > 100 µM | > 100 µM | > 100 µM | – | – | – | – | – | – | – | – | – | –
9 | COc1cc2c(cc1Cc1c(F)cccc1Cl)nc(-c1c(F)cccc1Cl)n2Cc1c(F)cccc1Cl | > 100 µM | 76.7 µM | > 100 | 75.7 µM | > 100 | > 100 µM | > 100 | > 100 µM | > 100 µM | > 100 µM | – | – | – | – | – | – | – | – | – | –
10 | O=[N+]([O-])c1ccc2c(c1)C1=NN(c3ccccc3)C(c3ccccc3Br)C1CCC2 (stereo not drawn) | > 50 µM | > 50 µM | 24.1 | > 50 µM | > 50 | > 50 µM | > 50 | > 50 µM | > 50 µM | > 50 µM | – | – | – | – | – | – | – | – | – | –
11 | CO[C@@H]1O[C@H](C(=O)c2ccccc2)[C@H]2OC(C)(C)O[C@@H]12 | > 100 µM | > 100 µM | > 100 | > 100 µM | > 100 | > 100 µM | > 100 | > 100 µM | > 100 µM | > 100 µM | – | – | – | – | – | – | – | – | – | –
12 | O=C1CSC2=NC3=C(COC/C3=C\c3ccc(Br)cc3)C(c3ccc(Br)cc3)N12 (stereo not drawn) | > 100 µM | > 100 µM | 36.9 | > 100 µM | > 100 | > 100 µM | 94.6 | > 100 µM | > 100 µM | > 100 µM | – | – | – | – | – | – | – | – | – | –
13 | [O-]/[N+](=C\c1ccccc1OC(=S)S)c1ccc(Cl)cc1 | > 100 µM | > 100 µM | 45 | > 100 µM | > 100 | > 100 µM | > 100 | 34.7 µM | > 100 µM | > 100 µM | – | – | – | – | – | – | – | – | – | –
14 | C=Cc1ccccc1C1(O)C=CC(OC)(OC)C=C1 | 68.8 µM | 33.4 µM | 6.38 | 19.5 µM | > 100 | 19.4 µM | 18.5 | 24.8 µM | 20.2 µM | 24.1 µM | – | – | – | – | – | – | – | – | – | –
15 | NC(=O)N/N=C1\CC2C3CC4C2C4C13 (stereo not drawn) | > 100 µM | > 100 µM | > 100 | > 100 µM | > 100 | > 100 µM | > 100 | > 100 µM | > 100 µM | > 100 µM | – | – | – | – | – | – | – | – | – | –
16 | COc1cc(/C=C/C=C2\CC/C(=C\C=C\c3ccc(O)c(OC)c3)C2=O)ccc1O | > 100 µM | > 100 µM | > 63.8 | > 100 µM | > 100 | > 100 µM | > 100 | > 100 µM | > 100 µM | > 100 µM | – | – | – | – | – | – | – | – | – | –
17 | CCOC(=O)/C=C(\C(=O)OCC)n1ccc(=O)n(Cc2cn(COCCOC(C)=O)nn2)c1=O | > 100 µM | 30.2 µM | 41.3 | > 100 µM | 63.6 | > 54.6 µM | > 100 | 41.1 µM | 55.2 µM | 47.2 µM | – | – | – | – | – | – | – | – | – | –
18 | O=C(N/N=C/c1ccc(Br)cc1)N/N=C/c1ccc(Br)cc1 | > 100 µM | 91.4 µM | 31.1 | 17.5 µM | 10.8 | 78.2 µM | 32.4 | 16.2 µM | 95.8 µM | 40.2 µM | – | – | – | – | – | – | – | – | – | –
19 | C=C(CN(C)C)C(=O)c1ccccc1[N+](=O)[O-] | 52.3 µM and 28.2 µM | > 56.5 µM and 29.2 µM | 8.2 | > 100 µM and 36.6 µM | 77.1 | 46.1 µM and 37.5 µM | 29.6 | 38 µM and 34.1 µM | 29.4 µM and 31.1 µM | 29.7 µM and 32.8 µM | 15 | 15.3 | – | 17.7 | – | 15.6 | 6.42 | 12.6 | 16.3 | 14.9
20 | COc1ccc(COCC[C@H](C)OC2OC(CO[Si](C)(C)C(C)(C)C)C(OC(=O)CCCN=[N+]=[N-])C(OC(=O)CCCN=[N+]=[N-])C2OC(=O)CCCN=[N+]=[N-])cc1 (stereo partly drawn) | > 100 µM | > 100 µM | 41.5 | > 100 µM | > 100 | > 100 µM | > 100 | > 100 µM | > 100 µM | > 100 µM | – | – | – | – | – | – | – | – | – | –
21 | CC(=O)c1ccc2c(c1)CC1(C2)Cc2ccccc2C1=O (stereo not drawn) | > 100 µM | > 100 µM | 70 | > 100 µM | > 100 | > 100 µM | > 100 | > 100 µM | > 100 µM | 50.8 µM | – | – | – | – | – | – | – | – | – | –
22 | CCOC(=O)C#Cc1ccccc1 | > 100 µM | 27.8 µM | 36.5 | 46.3 µM | 82.3 | 31.2 µM | 39.1 | 95.1 µM | 19.3 µM | > 100 µM | – | – | – | – | – | – | – | – | – | –
23 | COC1CC(OC2CCC3(C)C(=CCC4C3C(OC(C)=O)C(OC(=O)CC(C)C)C3(C)C(C(C)=O)CCC43O)C2)OC(C)C1OC1CC(OC)C(OC2CC(OC)C(OC3OC(C)C(OC4OC(CO)C(O)C(O)C4O)C(OC)C3O)C(C)O2)C(C)O1 (stereo not drawn) | > 75 µM | > 75 µM | > 75 | > 75 µM | > 75 | > 75 µM | > 75 | > 75 µM | > 75 µM | > 75 µM | – | – | – | – | – | – | – | – | – | –
24 | C[n+]1c(-c2ccc(/C=C/C=N\NC(=O)c3ccc(C(=O)N/N=C\C=C\c4ccc(-c5cn6ccccc6[n+]5C)cc4)cc3)cc2)cn2ccccc21 | 97.6 µM | > 100 µM | > 65.7 | > 100 µM | > 100 | > 57.5 µM | > 100 | > 58.8 µM | > 100 µM | > 100 µM | – | – | – | – | – | – | – | – | – | –
25 | O=c1[nH]c(Nc2cccc(CO)c2)nc2nc[nH]c12 | > 100 µM | > 100 µM | > 100 | > 100 µM | > 100 | > 100 µM | > 100 | > 100 µM | > 100 µM | > 100 µM | – | – | – | – | – | – | – | – | – | –
26 | COC(=O)C1(Cc2ccc3c(c2)CCC3)Cc2ccccc2C1 | > 100 µM | > 100 µM | 42.4 | > 100 µM | > 100 | > 100 µM | > 100 | > 100 µM | > 100 µM | > 100 µM | – | – | – | – | – | – | – | – | – | –
